# In patent US8003390B2, “Responses to singlet oxygen” (Wisconsin Alumni Research Foundation, priority 2005, dated 2011):
# Where two headings read alike, the source gives them in different places.
# What was measured:
# [1] = system: σ^E-dependent rpoE P1::lacZ reporter (σ^E activity); details: cited from earlier work
# [2] = system: σ^E-dependent rpoE P1::lacZ reporter (σ^E activity); assay: Differential rate of β-galactosidase synthesis from the σ^E-dependent rpoE P1::lacZ reporter fusion; type: cell-based, Rhodobacter sphaeroides; details: for Rate (differential rate of β-galactosidase synthesis from the σ^E-dependent rpoE::lacZ fusion): WT cells, Aero (30% O2)
# Procedure: Bacterial strains and plasmids: R. sphaeroides 2.4.1 (wild-type, WT), R. sphaeroides with a mutant ChrR (ΔChrR) (chrR-1::drf; see Newman et al., supra.) or R. sphaeroides with both a mutant σ^E (Δσ^E) and ΔChrR (TF18; rpoEchrR-1::drf, see Schilke B & Donohue T, “ChrR positively regulates transcription of the Rhodobacter sphaeroides cytochrome c2 gene,” J. Bacteriol. 177:1929-1937 (1995), incorporated herein by reference as if set forth in its entirety) were grown at 30° C. in Sistrom's succinate-based minimal medium A. Media used for growth of strains containing low-copy lacZ reporter plasmids was supplemented with 25 μg/ml kanamycin.
# Growth conditions: For aerobic respiratory growth, 500 ml of media was bubbled with a mixture of 69% N2, 30% O2 and 1% CO2 in the dark. Conversely, for photosynthetic growth, 500 ml of media was bubbled with a mixture of 95% N2 and 5% CO2 in front of an incandescent light source (10 W/m^2 as measured with a Yellow-Springs-Kettering model 6.5A radiometer through a Corning […] filter).
# (§1) To test the effects of ^1O2, photosynthetic cultures were exposed to aerobic growth conditions (69% N2, 30% O2 and 1% CO2) in the presence or in the absence of light (10 W/m^2). Where indicated, light was passed through a 1283 filter (Kopp Glass; Pittsburgh, Pa.) that impedes >99% of light at wavelengths <770 nm, but transmits >45% of light at 830 nm and >80% of light at 900 nm. When using methylene blue (Sigma-Aldrich; St. Louis, Mo.) to generate ^1O2, a final concentration of 1 μM was added to aerobic cultures in the presence or in the absence of incandescent light (10 W/m^2). To test the effects of other ROS, 0.5 mM H2O2, 1 mM diamide or 1 mM paraquat (Sigma-Aldrich) was added to aerobic cultures.
# Determining promoter activity: Promoter activity was determined by measuring β-galactosidase activity from a low copy rpoE P1::lacZ reporter plasmid or a trxA::lacZ reporter plasmid. The promoter for the thioredoxin gene (trxA, −214 to +27 relative to the known transcription initiation site) was fused to lacZ and mobilized into R. sphaeroides.
# β-galactosidase activity (units/ml of culture) was calculated as follows: (A420×1000)/(Cell volume in assay (ml)×Time of assay (min)). Culture density was typically monitored by measuring A600 in a BioSpec 1601 spectrophotometer (Schimatzu; Columbia, Md.). The density of cultures treated with methylene blue was monitored at 500 nm because methylene blue absorbs light between 609-668 nm. The differential rate of β-galactosidase synthesis was determined by calculating the slope from plots of enzyme activity (units/ml of culture) against optical density. All experiments were repeated a minimum of three times with differential rates of β-galactosidase synthesis typically deviating less than two-fold between experiments.
# [3] = system: trxA::lacZ reporter (trx promoter); type: cell-based, Rhodobacter sphaeroides
# Procedure: To test the effects of ^1O2, photosynthetic cultures were exposed to aerobic growth conditions (69% N2, 30% O2 and 1% CO2) in the presence or in the absence of light (10 W/m^2). Where indicated, light was passed through a 1283 filter (Kopp Glass; Pittsburgh, Pa.) that impedes >99% of light at wavelengths <770 nm, but transmits >45% of light at 830 nm and >80% of light at 900 nm. When using methylene blue (Sigma-Aldrich; St. Louis, Mo.) to generate ^1O2, a final concentration of 1 μM was added to aerobic cultures in the presence or in the absence of incandescent light (10 W/m^2). […]
# Determining promoter activity: Promoter activity was determined by measuring β-galactosidase activity from a low copy rpoE P1::lacZ reporter plasmid or a trxA::lacZ reporter plasmid. […]
# β-galactosidase activity (units/ml of culture) was calculated as follows: (A420×1000)/(Cell volume in assay (ml)×Time of assay (min)). Culture density was typically monitored by measuring A600 in a BioSpec 1601 spectrophotometer (Schimatzu; Columbia, Md.). The density of cultures treated with methylene blue was monitored at 500 nm because methylene blue absorbs light between 609-668 nm. The differential rate of β-galactosidase synthesis was determined by calculating the slope from plots of enzyme activity (units/ml of culture) against optical density. […]
# [4] = system: R. sphaeroides Δσ^E mutant; assay: Growth and viability of aerobically grown cells treated with methylene blue in the presence of light; type: cell-based, Rhodobacter sphaeroides; details: methylene blue + light (1O2), FIG. 3
# Procedure: as §1
# All experiments were initiated when cultures reached ˜2×10^8 cfu/ml to minimize light or O2 limitation to photosynthetic and aerobic cells, respectively. To measure cell viability, samples were removed, diluted and plated in media supplemented with 25 μg/ml kanamycin to select for the rpoE P1::lacZ reporter plasmid. The whole cell abundance of carotenoids was measured as described in Cohen-Bazire G, et al., “Kinetic studies of pigment synthesis by non-sulfur purple bacteria,” J. Cell Physiol. 49:25-68 (1957). […]
# [5] = WT cells grown aerobically, 0.5 mM H2O2, 1 mM diamide or 1 mM paraquat, untreated = 11
structure (smiles),measurement,setting,value
"CN(C)C(=O)/N=N/C(=O)N(C)C [Diamide, diamide]",σ^E activity upon exposure to the compound (previous work),[1],does not increase
same,rpoE P1::lacZ fusion (differential rate of β-galactosidase synthesis),[2]; [5],3
"OO [H2O2, hydrogen peroxide]",Change of differential rate of β-galactosidase synthesis from the σ^E-dependent reporter fusion compared to untreated cells,[2],no more than 1.2 fold
same,rpoE P1::lacZ fusion (differential rate of β-galactosidase synthesis),[2],13
same,trxA::lacZ fusion (differential rate of β-galactosidase synthesis),[3],220
"C[n+]1ccc(-c2cc[n+](C)cc2)cc1 [Paraquat, paraquat]",rpoE P1::lacZ fusion (differential rate of β-galactosidase synthesis),[2]; [5],6
same,Change of differential rate of β-galactosidase synthesis from the σ^E-dependent reporter fusion compared to untreated cells,"[2]; aerobic WT cells, 0.5 mM H2O2 or 1 mM paraquat",decreased
same,trxA::lacZ fusion (differential rate of β-galactosidase synthesis),"[3]; WT cells grown aerobically, 0.5 mM H2O2 or 1 mM paraquat, untreated = 185",450
CN(C)c1ccc2nc3ccc(=[N+](C)C)cc-3sc2c1 [methylene blue],"Effect on Δσ^E mutant when carotenoids are low (OD500nm, cfu/ml)",[4],bacteriocidal
same,Increase of differential rate of β-galactosidase synthesis from rpoE P1::lacZ compared to aerobic cells grown without methylene blue,"[2]; WT aerobic cells, 1 μM methylene blue, light and O2",~20 fold
same,Increase of rate of β-galactosidase synthesis from rpoE P1::lacZ,"[2]; WT aerobic cultures, methylene blue in the dark",two-fold
same,Rate (differential rate of β-galactosidase synthesis from the σ^E-dependent rpoE::lacZ fusion),[2]; 1 μM methylene blue + light (generates 1O2),151
same,Rate (differential rate of β-galactosidase synthesis from the σ^E-dependent rpoE::lacZ fusion),"[2]; 1 μM methylene blue, dark (no 1O2)",8
